# Literature values in patent US20200188476A1, “ANTI-MICROBIAL AGENT-POLYMER CONJUGATES AND METHODS OF USE THEREOF” (The Regents of the University of California, priority 2017, published 2020).
# Legend:
# bacteria [1] = tested on: bacteria
# [2] = human, in vivo
# bacteria [3] = tested on: bacteria; remark: listed apart in the source
substance,measurement,setting,value
Polymyxin B nonapeptide [nonapeptide of polymyxin B],reduction of antibacterial activity relative to polymyxin B,bacteria [1],2-64 fold
same,reduction of toxicity in cell culture relative to polymyxin B,cell culture,about 100 fold
colistin,overall incidence of neurotoxicity or neuropathy,[2],7.3%
octanoyl polymyxin B heptapeptide,concentration that inhibits the growth of bacteria,bacteria [3],128 µg/mL
octanoyl polymyxin B nonapeptide,inhibition of bacterial growth,bacteria [3],very potent agents to inhibit bacterial growth
octanoyl polymyxin B octapeptide,inhibition of bacterial growth,bacteria [3],very potent agents to inhibit bacterial growth
